Experimental data published in PubChem BioAssay (NCI).
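Tested at 5 concentrations; 48 h exposure; 96-well plates; endpoints linearly interpolated, else capped at highest concentration. At the GI50, growth is halved. TGI is the concentration that stops growth completely.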

Tests used:
Test in all cases: NCI anticancer screen, dose series, 48 h
[1] = tested on: COLO 205 colon
[2] = tested on: HOP-92 NSCLC
[3] = tested on: OVCAR-8 ovarian
[4] = tested on: HOP-62 NSCLC
[5] = tested on: SF-268 CNS
[6] = tested on: HCT-15 colon
[7] = tested on: ACHN renal
[8] = tested on: NCI/ADR-RES ovarian
[9] = tested on: MDA-MB-435
[10] = tested on: HL-60(TB) leukemia

SMILES | TGI [1] [µM] | TGI [2] [µM] | TGI [3] [µM] | TGI [4] [µM] | TGI [5] [µM] | TGI [6] [µM] | TGI [7] [µM] | TGI [8] [µM] | TGI [9] [µM] | TGI [10] [µM] | GI50 [1] [µM]
COc1cc(CNc2nc3c(NC(C)=O)cc(C(F)(F)F)cc3nc2-c2ccccc2)cc(OC)c1OC | > 100 | > 100 | > 100 | > 100 | > 100 | > 100 | > 100 | – | – | – | –
CCN(CCCl)c1cc(CN(C)C)cc(NC(=O)c2ccc(C(=O)Nc3cccc(N(CCCl)NN)c3)cc2)c1 | 0.199 | 0.707 | 0.942 | 10.7 | 20.5 | 4.89 | 0.233 | 12.7 | 0.0389 | 13.1 | –
CN(Cc1ccccc1)C(=S)S | > 100 | > 100 | > 100 | > 100 | > 100 | > 100 | > 100 | > 100 | > 100 | 59.1 | –
CCOC(=O)CCC(C(=O)OCC)n1nnc2cc(Nc3c(C)[n+]([O-])c4cc(Cl)ccc4[n+]3[O-])ccc21 (centres undefined) | > 100 | > 100 | > 100 | > 100 | > 100 | > 100 | > 100 | > 100 | > 100 | > 100 | –
NCC1OC(OC2C(N)CC(N)C(O)C2OC2OC(CO)C(O)C2O)C(N)C(O)C1O (centres undefined) | > 100 | > 100 | > 100 | > 50 | > 100 | > 100 | > 100 | > 100 | > 100 | > 100 | > 100
C/C(=C\C(=O)O)C(=O)N(C)c1ccccc1I | > 100 | > 100 | > 100 | > 100 | > 100 | > 100 | > 100 | > 100 | > 100 | – | –
Cc1c(-c2ccccc2)oc(=O)c2ccccc12 | 33.7 | 38 | 93 | 43.5 | 45.1 | 54.2 | 98.2 | 75.4 | 34.6 | – | –
c1csc(-c2cc(-c3ccsc3)cs2)c1 | > 100 | > 100 | – | > 100 | > 100 | > 100 | > 100 | > 100 | > 100 | > 100 | –
O=C(Nc1nnc(-c2ccccc2)o1)C(SC(=S)N1CCCC1)c1ccccc1 (centres undefined) | > 100 | – | > 100 | > 100 | – | > 100 | > 100 | 60.1 | > 100 | 48.1 | –
Cc1cc(C)c(C2=NO[C@@H]3[C@H]2C(=O)C=C2N(Cc4ccccc4)CCO[C@@]23O)c(C)c1 | > 100 | > 100 | > 100 | > 100 | > 100 | > 100 | – | > 100 | – | > 100 | –
CC1=NN(c2cc(Cl)c(S(=O)(=O)O)cc2Cl)C2(C1)C(Cl)C(=O)N2c1nc2ccccc2s1 (centres undefined) | > 100 | > 100 | > 100 | – | > 100 | > 100 | > 100 | > 100 | > 100 | > 100 | –
CCCCCCCCCCCCCCCCOC[C@H](COC(c1ccccc1)(c1ccccc1)c1ccccc1)O[P+](=S)OC (some centres undefined) | > 100 | > 100 | > 100 | – | > 100 | > 100 | > 100 | > 100 | > 100 | > 100 | –
FC(F)(Sc1ncccn1)c1nc2ccccc2o1 | > 100 | > 100 | > 100 | > 100 | > 100 | > 100 | > 100 | > 100 | > 100 | – | –
CN1CCN(Cc2ccc(C(=S)Nc3ccccc3)s2)CC1 | 45.9 | – | > 100 | > 100 | > 100 | 55.4 | > 100 | > 100 | > 100 | > 100 | –
C[C@]12CC[C@H]3[C@@H](CCC4=C/C(=N/OCCN5CCCCC5)CC[C@@]43C)[C@@H]1CC[C@@H]2O | 47.3 | – | > 100 | 29.1 | – | 21.2 | 51.6 | 54.4 | 20.2 | 8.05 | –
O=C(CN1CCCC1)Nc1ccc2c(c1)C1Oc3ccccc3CC1CO2 (centres undefined) | 27.8 | > 100 | > 100 | 45.5 | > 100 | 47.2 | – | > 100 | 55.4 | > 100 | –
